Earlier results, collected in PMC8739290, “A phase 1b study of erlotinib and momelotinib for the treatment of EGFR-mutated, tyrosine kinase inhibitor-naive metastatic non-small cell lung cancer” (Cancer Chemotherapy and Pharmacology, 2021).

Test system: PC-9 and HCC827 models
Parameters: method as in PMID 32297743, doi:10.1158/7445.AM2017-4046
Conditions: AZD4205 with osimertinib, increased tumor regression, delayed regrowth, knockdown of pSTAT3; cited from earlier work

For `COc1nn(C)cc1Nc1nccc(-c2c[nH]c3c(NC(=O)[C@@H](C)N4CCN(C)CC4)cccc23)n1` [AZD4205, (2R)-N-[3-[2-[(3-Methoxy-1-methyl-pyrazol-4-yl)amino]pyrimidin-4-yl]-1H-indol-7-yl]-2-(4-methylpiperazin-1-yl)propenamide], the “combination activity compared to each agent alone” value is listed as “synergistic activity”.
